Assay results taken from patent US20060057669A1, “Inactive transcription factor tif-ia and uses thereof” (priority 2002, published 2006).

What was measured:
TIF-IB/SL1 = test: Co-immunoprecipitation of TIF-IB/SL1 with TIF-IA mutants from HEK293T cells; format: binding, human
Description: (§1) (B) A mutant that mimics phosphorylation of TIF-IA at S199 fails to interact with Pol I and TIF-IB. FLAG-tagged wild-type TIF-IA or the indicated point mutants were overexpressed in HEK293T cells and immunoprecipitated from cell lysates with anti-FLAG antibodies (M2 agarose). Co-precipitated Pol I and TIF-IB/SL1 were visualized on Western blots with anti-RPA116 and anti-TAFI110 antibodies.
(§2) Immunoprecipitations were carried out from human cells overexpressing FLAG-tagged TIF-IA. Cells were lysed in IP buffer, cleared by centrifugation at 10,000×g for 30 min, and the supernatants were incubated for 4 hr at 4° C. with anti-FLAG (M2) agarose (Sigma). To analyze the interaction of TIF-IA with TIF-IB/SL1, the immunoprecipitates were washed with IP buffer and TIF-IB/SL1 was visualized on immunoblots with α-TAFI110 antibodies. To monitor the interaction of TIF-IA with Pol I, the immunoprecipitates were washed with IP buffer containing 600 mM NaCl and Pol I was analyzed on Western blots using antibodies against the second largest subunit of Pol I (RPA116) or PAF67 (Seither et al., J. Biol. Chem. 382 (2001), 1163-1170).
(§3) Given the importance of mTOR-mediated alterations in the phosphorylation pattern on TIF-IA activity, one could predict that either phosphorylation of S199, dephosphorylation of S44 or both regulate the interaction of TIF-IA with the Pol I transcription apparatus. It was therefore examined whether the S→A or S→D point mutant(s) were capable of interacting with Pol I and/or TIF-IB/SL1. For this, TIF-IA was precipitated from cells overexpressing either FLAG-tagged wild-type TIF-IA or the respective S199 and S44 mutant(s), and co-precipitated Pol I and TIF-IB/SL1 were visualized on Western blots.

Pol I = test: Co-immunoprecipitation of Pol I with TIF-IA mutants from HEK293T cells; format: binding, human
Description: as §1, §2, §3

TIF-IA = test: Two-dimensional tryptic phosphopeptide mapping of TIF-IA labeled in vivo in HEK293T cells; format: cell-based, human; conditions: serum-stimulated cells, 40 μM PD98059
Description: HEK293T cells were transfected with pcDNA3.1-FLAG-TIF-IA, starved for 12 hr and labeled for 4 hr with [^32P]orthophosphate. 30 min before harvesting, 10% dialyzed FCS was added and cells were incubated in the absence (left panel) or presence of 40 μM PD98059 (right panel). Immunopurified TIF-IA was subjected to two-dimensional phosphopeptide mapping.
(B) Tryptic peptide maps of TIF-IA phosphorylated in vivo. FLAG-tagged wild-type TIF-IA, TIF-IAS633A and TIF-IAS649A were expressed in HEK293T cells and labeled with [^32P]orthophosphate for 4 hr. TIF-IA was purified by immunoprecipitation and digested with trypsin. Phosphopeptides were separated on cellulose thin-layer plates and visualized by autoradiography. The sequence of the C-terminus of human TIF-IA (H.s.) and an alignment with the corresponding sequences from mouse (M.m.), Drosophila melanogaster (D.m.) and Saccharomyces pombe (S.p.) is shown above.
(A) Two-dimensional tryptic phosphopeptide maps of TIF-IA. HEK293T cells were transfected with FLAG-tagged TIF-IA and labeled for 2 hr with [^32P]orthophosphate in the absence (left) or presence (right) of 20 nM rapamycin. TIF-IA was immunopurified, digested with trypsin, separated on cellulose thin-layer plates and visualized by autoradiography.
(B) Tryptic phosphopeptide map of TIF-IAS44A phosphorylated in vivo. […]

| Molecule | interaction with TIF-IB/SL1 (co-precipitated TAFI110) (TIF-IB/SL1) | interaction with Pol I (co-precipitated RPA116) (Pol I) | labeling of TIF-IA phosphopeptide spots d, f and g (TIF-IA) | phosphorylation of TIF-IA phosphopeptide spots b and c (TIF-IA) |
| --- | --- | --- | --- | --- |
| TIF-IA: wild-type human transcription initiation factor TIF-IA, accession No. AJ272050 | interacted with both Pol I and TIF-IB/SL1 | interacted with both Pol I and TIF-IB/SL1 | – | – |
| COc1cccc(-c2cc(=O)c3ccccc3o2)c1N [PD98059] | – | – | impaired | reduced |
